These are literature values, as cited in US20070032554A1, “Treatment of stuttering and other communication disorders with norepinephrine reuptake inhibitors” (ELILILLY AND COMPANY a Corporation, priority 2003, published 2007).

For this data set the following is noted: for side effects / tolerability: literature reports, treatment of stuttering; for effect on stuttering: literature reports in persons who stutter.

Consider `CN[C@H]1CC[C@@H](c2ccc(Cl)c(Cl)c2)c2ccccc21` [Sertraline], for which the “side effects / tolerability” value is on record as “a number of undesirable side effects”. On to `Cc1nc2n(c(=O)c1CCN1CCC(c3noc4cc(F)ccc34)CC1)CCCC2` [risperidone], for which the effect on stuttering entry is listed as “may be effective” and the “side effects / tolerability” value is “sedation was common”.

For the molecule `Fc1ccc([C@@H]2CCNC[C@H]2COc2ccc3c(c2)OCO3)cc1` [Paroxetine], the “side effects / tolerability” value was “a number of undesirable side effects”. For the molecule `Cc1cc2c(s1)Nc1ccccc1N=C2N1CCN(C)CC1` [Olanzapine], the “side effects / tolerability” value was “mostly limited to slight weight gain and drowsiness”.

Regarding `O=C(CCCN1CCC(O)(c2ccc(Cl)cc2)CC1)c1ccc(F)cc1` [haloperidol], the effect on stuttering result is recorded as “reduce the symptoms of stuttering” and the “side effects / tolerability” value is reported as “not well tolerated”.
